Laboratory results from patent US8629277B2, “Styrenyl 1,2,4-oxadiazole compounds” (Piramal Enterprises Limited, priority 2010, dated 2014).

How the values were obtained:
Assay type in all cases: cell-based
CRKL protein [1] = test: Inhibition of phosphorylation of CRKL protein, Western blot, M351T cell line; conditions: FIG. 6B
Protocol: (§1) Phospho-CRKL monitoring has been recognized as a prognostic marker in CML patients treated with first and second generation Bcr-Abl inhibitors (Haematologica, 2008, 93, 5, 765-769). The assay was carried out using Western blot analysis according to the reference, Analytical Biochemistry, 1981, 112, 2, 195-203, with certain modifications.
(§2) Western blot analysis was performed to decipher the mechanism of action of compounds of the present invention. […] The cells were incubated in a humidified incubator for 2-4 h at 37° C. Subsequently, cells were treated with respective concentrations of the compounds. Cells were then incubated for 72 h. Following the incubation, cells were harvested, washed with ice-cold phosphate buffered saline (PBS) and lysed with cold Cell Lytic buffer (Sigma Aldrich) supplemented with complete protease inhibitor cocktail (Roche, Germany). The protein extracts were obtained after centrifugation at 14,000 rpm at 4° C. (30 min). Aliquots of the resulting extracts were analyzed for their protein content using Bradford Reagent (Sigma) as per the manufacturer's instructions. Equivalent protein samples (70 μg) were loaded on 10% Tris-glycine gels and resolved at 100 V for 2 h in a buffered solution (24.9 mM Tris base, 250 mM glycine, 0.1% SDS (sodium dodecyl sulfate)). […]

CRKL protein [2] = test: Inhibition of phosphorylation of CRKL protein, Western blot, Y253H cell line; conditions: FIG. 6B
Protocol: as §1, §2

CRKL protein [3] = test: Inhibition of phosphorylation of CRKL protein, Western blot, E255V cell line; conditions: 72 h, FIG. 5, FIG. 6B
Protocol: as §1, §2

CCCc1noc(C=Cc2ccc(O)c(O)c2)n1 [Compound of Example 3, 4-[2-(3-Propyl-[1,2,4]oxadiazol-5-yl)-vinyl]-benzene-1,2-diol]
inhibit: phospho-CRKL (CRKL protein [1]) | phospho-CRKL (CRKL protein [2]) | phosphorylation of CRKL protein (Tyr-207) (CRKL protein [3])
